According to ChEMBL document CHEMBL1201862, “PubChem BioAssay data set” (2004):
Calls of active or inactive are those of the source.

Legend:
[1] = target: Mitogen-activated protein kinase 10 (Homo sapiens, UniProt P53779); experiment: Dose response biochemical screening assay for inhibitors of c-Jun N-Terminal Kinase 3 (JNK3). [Related pubchem assays: 746 ]
[2] = NIH:OVCAR-3 ovarian cancer cell cytotoxicity, dose response, PAX8 inhibitor project, plate reader, dry powder samples (AID 743044); type: functional, cell-based
[3] = cytotoxicity in OVCAR8 ovarian cancer cells, dose response, PAX8 project, cell-based, plate reader, dry powder samples (AID 743197); type: functional; settings: OVCAR-8
Paired box protein Pax-8 = Paired box protein Pax-8 (Homo sapiens, UniProt Q06710); experiment: inhibitors of PAX8-driven TPO luciferase reporter, dose response, RMG-I cells, cherry-pick (AID 687027); type: functional, cell-based;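 also: luciferase reporter driven by Pax8 target thyroperoxidase promoter measured by SteadyGlo luminescence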
[4] = A2780 ovarian cancer cell cytotoxicity, dose response, cytotoxicity control, plate reader, dry powder samples (AID 743046); type: functional, cell-based
[5] = P. falciparum ATP4 D1247Y mutant growth inhibitors, dose response, NITD609-resistant line, SYBR Green, dry powder (AID 1159571); type: functional, cell-based;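 also: parasites synchronized at ring stage by sorbitol before testing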
[6] = HepG2 cell cytotoxicity, dose response, cytotoxicity control, plate reader, dry powder samples (AID 1159569); type: functional, cell-based;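 also: inhibitor potency with signal falling toward the positive control level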
[7] = P. falciparum Dd2 growth inhibitors, dose response, SYBR Green, cherry-picked samples (AID 1159567); type: functional, cell-based
[8] = P. falciparum 3D7-ScDHODH growth inhibitors, dose response, SYBR Green, dry powder samples (AID 1159570); type: functional, cell-based;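 also: parasite growth measured after 72 hours of compound exposure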
[9] = P. falciparum Dd2 growth inhibitors, dose response, SYBR Green, dry powder samples (AID 1159566); type: functional, cell-based;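 also: potency for growth inhibition with lower SYBR green DNA signal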
[10] = HeLa cell cytotoxicity, dose response, cytotoxicity control for MgcRacGAP inhibitor project (AID 624300); type: functional
[11] = target: T1, Rac GTPase-activating protein 1 (Homo sapiens, UniProt Q9H0H5); experiment: MgcRacGAP GTPase-activating activity inhibitors, confirmation, biochemical, ADP Hunter fluorescence, primary and confirmatory (AID 624330); type: functional
T1 sequence (Q9H0H5 whole entry): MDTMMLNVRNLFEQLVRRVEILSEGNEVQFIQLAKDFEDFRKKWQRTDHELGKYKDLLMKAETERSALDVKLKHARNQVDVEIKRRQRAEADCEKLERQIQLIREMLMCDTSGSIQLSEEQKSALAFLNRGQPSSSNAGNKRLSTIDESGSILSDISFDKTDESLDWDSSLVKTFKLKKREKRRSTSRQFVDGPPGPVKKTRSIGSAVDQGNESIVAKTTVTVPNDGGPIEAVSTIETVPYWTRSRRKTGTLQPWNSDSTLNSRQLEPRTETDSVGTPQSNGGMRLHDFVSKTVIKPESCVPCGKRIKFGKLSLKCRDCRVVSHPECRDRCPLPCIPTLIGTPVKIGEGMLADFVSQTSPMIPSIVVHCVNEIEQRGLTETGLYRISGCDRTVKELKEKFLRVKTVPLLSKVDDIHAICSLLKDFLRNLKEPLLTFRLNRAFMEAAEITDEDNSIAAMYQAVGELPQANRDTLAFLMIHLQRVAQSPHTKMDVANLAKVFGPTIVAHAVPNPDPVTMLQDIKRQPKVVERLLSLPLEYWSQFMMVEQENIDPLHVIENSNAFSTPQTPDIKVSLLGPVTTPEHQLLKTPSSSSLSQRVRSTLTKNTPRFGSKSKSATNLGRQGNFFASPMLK

[12] = inhibitors of PGC1a acetylation in cells, dose response, cell-based, cherry-picked samples (AID 720514); type: functional;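 also: potency may reflect raised or lowered acetylation signal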
[13] = target: T2, Replicative DNA helicase DnaB (Mycobacterium tuberculosis, UniProt P9WMR3); experiment: DnaB intein splicing inhibitors, dose response, biochemical, cell-free fluorescence (AID 449749); type: functional
T2 sequence (P9WMR3 whole entry): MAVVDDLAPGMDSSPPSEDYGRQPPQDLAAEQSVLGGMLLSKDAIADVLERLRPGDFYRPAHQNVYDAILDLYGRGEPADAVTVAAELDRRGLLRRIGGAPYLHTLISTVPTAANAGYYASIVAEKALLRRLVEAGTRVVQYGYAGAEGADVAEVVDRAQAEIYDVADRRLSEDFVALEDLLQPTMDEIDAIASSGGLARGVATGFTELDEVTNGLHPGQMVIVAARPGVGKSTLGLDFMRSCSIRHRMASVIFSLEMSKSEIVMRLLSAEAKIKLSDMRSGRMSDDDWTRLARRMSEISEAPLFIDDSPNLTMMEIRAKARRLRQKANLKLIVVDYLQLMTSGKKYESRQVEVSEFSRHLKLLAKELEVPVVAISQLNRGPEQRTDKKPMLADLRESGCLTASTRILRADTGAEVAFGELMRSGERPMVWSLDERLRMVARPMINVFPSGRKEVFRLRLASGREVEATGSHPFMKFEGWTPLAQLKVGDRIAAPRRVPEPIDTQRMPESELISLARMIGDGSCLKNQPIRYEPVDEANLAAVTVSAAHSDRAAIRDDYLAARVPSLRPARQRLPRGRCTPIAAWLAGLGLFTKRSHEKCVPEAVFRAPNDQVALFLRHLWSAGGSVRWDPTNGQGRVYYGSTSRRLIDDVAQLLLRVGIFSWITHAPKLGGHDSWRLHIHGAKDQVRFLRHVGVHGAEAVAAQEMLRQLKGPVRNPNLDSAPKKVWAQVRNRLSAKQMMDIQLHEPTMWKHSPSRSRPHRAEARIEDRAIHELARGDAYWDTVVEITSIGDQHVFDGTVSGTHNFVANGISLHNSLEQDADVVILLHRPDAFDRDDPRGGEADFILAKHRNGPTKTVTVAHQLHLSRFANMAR

[14] = target: T3, Heat shock factor protein 1 (Mus musculus, UniProt P38532); experiment: inhibition of MG132-induced HSE-luciferase signal, confirmation, cell-based, NIH3T3, luminescence, dose retest (AID 2382); type: functional;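 also: NIH3T3 fibroblasts with HSF1-driven luciferase reporter stressed by proteasome inhibitor MG132; luminescence from HSF1-driven luciferase expression after 8 hours of MG132 stress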
T3 sequence (P38532 whole entry): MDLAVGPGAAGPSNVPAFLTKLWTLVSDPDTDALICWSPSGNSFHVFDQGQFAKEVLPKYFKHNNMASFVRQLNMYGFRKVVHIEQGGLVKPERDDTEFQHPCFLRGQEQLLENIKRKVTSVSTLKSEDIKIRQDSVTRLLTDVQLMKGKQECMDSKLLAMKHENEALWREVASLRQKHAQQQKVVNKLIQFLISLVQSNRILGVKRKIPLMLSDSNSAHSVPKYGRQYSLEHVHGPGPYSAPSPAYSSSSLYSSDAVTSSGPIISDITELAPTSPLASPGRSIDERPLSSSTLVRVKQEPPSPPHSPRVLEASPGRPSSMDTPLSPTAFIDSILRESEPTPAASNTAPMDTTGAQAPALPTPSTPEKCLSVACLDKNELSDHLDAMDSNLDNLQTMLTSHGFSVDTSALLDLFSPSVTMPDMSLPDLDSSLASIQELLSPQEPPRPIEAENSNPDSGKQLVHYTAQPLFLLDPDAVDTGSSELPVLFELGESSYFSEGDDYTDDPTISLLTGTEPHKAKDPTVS

[15] = NIH-3T3 fibroblast cytotoxicity, dose response, cytotoxicity control, cell-based, fluorescence, Alamar Blue, secondary assay (AID 2327); type: functional;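 also: NIH-3T3 mouse fibroblasts cultured with fluconazole at 8 µg/mL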
[16] = cytotoxicity toward NIH3T3 fibroblasts, dose response, counter-screen, cell-based, ATP luminescence, mouse fibroblasts (AID 2010); type: functional;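 also: cells exposed to compound for about 90 hours before reading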
[17] = inhibitors of intracellular T. cruzi replication, confirmation, NIH3T3 host cells, beta-gal luminescence (AID 2044); type: functional, cell-based;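 also: intracellular parasites grown in NIH/3T3 mouse fibroblasts as host cells; luminescent beta-galactosidase reporter signal from transgenic T. cruzi replicating inside host cells; inhibitors lower the luminescence signal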
[18] = Fluorescence-based cell-based high throughput dose response assay for inhibitors of the interaction of nucleotide-binding oligomerization domain containing 2 (NOD2) and the receptor-interacting serine-threonine kinase 2 (RIPK2).; type: functional; settings: Homo sapiens
[19] = C. albicans growth with fluconazole, confirmation, fluorescence, retest (AID 2467); type: functional, cell-based
Protein RecA = target: T4, Protein RecA (Mycobacterium tuberculosis, UniProt P9WHJ3); experiment: Fluorescence Cell-Free Homogeneous Dose Retest to Identify Inhibitors of RecA-Intein Splicing Activity. [Related pubchem assays (depositor defined):AID2097, AID2223, AID489010, AID492950]; type: functional
T4 sequence (P9WHJ3 whole entry): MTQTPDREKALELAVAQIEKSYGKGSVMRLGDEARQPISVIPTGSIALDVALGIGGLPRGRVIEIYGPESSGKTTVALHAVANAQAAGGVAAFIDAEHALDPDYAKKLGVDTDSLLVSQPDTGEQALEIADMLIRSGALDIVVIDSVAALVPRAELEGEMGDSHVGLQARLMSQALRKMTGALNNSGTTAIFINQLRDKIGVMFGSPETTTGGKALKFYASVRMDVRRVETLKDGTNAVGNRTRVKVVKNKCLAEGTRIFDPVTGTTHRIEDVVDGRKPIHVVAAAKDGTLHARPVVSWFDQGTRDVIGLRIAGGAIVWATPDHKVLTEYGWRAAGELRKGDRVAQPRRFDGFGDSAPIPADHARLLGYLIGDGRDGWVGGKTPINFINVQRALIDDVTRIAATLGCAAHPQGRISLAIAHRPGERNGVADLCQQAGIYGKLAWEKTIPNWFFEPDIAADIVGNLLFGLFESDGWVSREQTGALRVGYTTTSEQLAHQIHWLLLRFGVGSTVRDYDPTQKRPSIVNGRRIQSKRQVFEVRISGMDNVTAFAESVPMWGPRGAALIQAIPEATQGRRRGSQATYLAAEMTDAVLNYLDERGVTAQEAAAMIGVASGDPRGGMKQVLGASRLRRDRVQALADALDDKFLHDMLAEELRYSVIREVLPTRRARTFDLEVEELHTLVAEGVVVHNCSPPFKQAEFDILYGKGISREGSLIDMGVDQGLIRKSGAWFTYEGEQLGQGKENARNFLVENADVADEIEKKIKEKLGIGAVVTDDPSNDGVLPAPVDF

[20] = target: E3 ubiquitin-protein ligase Mdm2 (Homo sapiens, UniProt Q00987); experiment: enhancers of MDM2-luciferase reporter signal, concentration-effect titration, project on inhibitors of MDM2 ubiquitin ligase, cellular assay, luminescent readout, 384-well plate format (AID 1394); type: functional;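 also: MDM2 E3 inhibitors raise luminescence so EC50 is for signal enhancement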
[21] = MC4R antagonists, dose response, counter-screen for LGR2 antagonist project, cell-based, plate reader, cherry pick (AID 743444); type: functional;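 also: transfected HEK 293 cells stimulated with alpha-MSH peptide; potency of inhibitors of the alpha-MSH evoked signal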
[22] = HepG2 cell cytotoxicity, dose response, cytotoxicity control, plate reader, cherry-pick, antagonist series (AID 743416); type: functional, cell-based
[23] = LGR2 antagonists, dose response, cell-based, HEK293, CRE-luciferase reporter, cherry pick, set 2 (AID 743343); type: functional;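 also: transfected cells were stimulated with diluted bursicon conditioned medium after compound addition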

Mitogen-activated protein kinase 10, sequence (P53779 whole entry): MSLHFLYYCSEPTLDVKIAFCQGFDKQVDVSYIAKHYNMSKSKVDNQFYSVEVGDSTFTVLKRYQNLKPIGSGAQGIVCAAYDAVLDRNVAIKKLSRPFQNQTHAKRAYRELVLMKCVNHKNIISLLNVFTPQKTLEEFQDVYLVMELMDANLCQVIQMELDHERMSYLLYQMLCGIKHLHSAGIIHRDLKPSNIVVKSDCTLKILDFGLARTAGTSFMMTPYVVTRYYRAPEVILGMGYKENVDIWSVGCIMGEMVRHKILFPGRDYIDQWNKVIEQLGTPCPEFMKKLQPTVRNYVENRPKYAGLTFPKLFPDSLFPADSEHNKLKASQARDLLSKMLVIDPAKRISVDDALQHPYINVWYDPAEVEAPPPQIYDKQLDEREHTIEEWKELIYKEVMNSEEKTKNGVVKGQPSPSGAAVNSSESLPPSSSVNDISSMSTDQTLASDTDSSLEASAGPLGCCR
Paired box protein Pax-8, sequence (Q06710 whole entry): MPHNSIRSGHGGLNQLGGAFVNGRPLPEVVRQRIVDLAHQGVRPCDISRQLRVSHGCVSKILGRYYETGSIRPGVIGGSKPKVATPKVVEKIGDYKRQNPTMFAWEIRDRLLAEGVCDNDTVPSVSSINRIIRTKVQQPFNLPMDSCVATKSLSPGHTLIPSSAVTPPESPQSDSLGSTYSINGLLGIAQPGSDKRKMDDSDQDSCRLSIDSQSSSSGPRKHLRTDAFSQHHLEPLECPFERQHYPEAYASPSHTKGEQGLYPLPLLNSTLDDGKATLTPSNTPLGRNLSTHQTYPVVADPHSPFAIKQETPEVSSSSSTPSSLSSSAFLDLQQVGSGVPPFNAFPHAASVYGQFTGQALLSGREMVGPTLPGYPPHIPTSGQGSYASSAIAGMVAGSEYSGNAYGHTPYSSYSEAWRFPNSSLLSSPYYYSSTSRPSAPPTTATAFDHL
E3 ubiquitin-protein ligase Mdm2, sequence (Q00987 whole entry): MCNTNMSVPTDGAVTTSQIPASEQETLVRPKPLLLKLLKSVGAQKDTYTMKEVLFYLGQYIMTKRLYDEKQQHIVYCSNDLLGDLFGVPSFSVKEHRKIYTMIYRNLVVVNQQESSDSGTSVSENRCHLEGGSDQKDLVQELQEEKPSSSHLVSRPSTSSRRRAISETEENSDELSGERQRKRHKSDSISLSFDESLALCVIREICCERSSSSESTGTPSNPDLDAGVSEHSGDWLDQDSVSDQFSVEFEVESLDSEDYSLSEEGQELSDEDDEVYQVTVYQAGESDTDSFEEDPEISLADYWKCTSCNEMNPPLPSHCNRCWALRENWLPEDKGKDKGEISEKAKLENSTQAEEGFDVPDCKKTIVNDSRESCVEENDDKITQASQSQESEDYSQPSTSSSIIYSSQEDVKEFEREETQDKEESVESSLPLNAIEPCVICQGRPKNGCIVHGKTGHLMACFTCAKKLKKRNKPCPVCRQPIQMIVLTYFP

CCOc1ccc(C2CC(=O)NC3=C2C(=O)CCC3)cc1 (configuration not stated)
IC50 [1]: > 93.1 µM (not active)

C[C@@H]1CCCCO[C@@H](CN(C)C(=O)c2ccccc2)[C@H](C)CN([C@H](C)CO)C(=O)c2cc(NC(=O)Nc3ccc(C(F)(F)F)cc3)ccc2O1
AC50 [2]: 36.5 µM (active) | AC50 [3]: > 70 µM (inactive) | AC50 (Paired box protein Pax-8): 3.53 µM (active)

COc1ccc(S(=O)(=O)Nc2ccc3c(c2)C(=O)N([C@@H](C)CO)C[C@H](C)[C@@H](CN(C)Cc2ccc(C(F)(F)F)cc2)OCCCC[C@@H](C)O3)cc1
AC50 [2]: 23 µM (active) | AC50 [4]: 56.2 µM (active) | AC50 [3]: 23.6 µM (active) | AC50 (Paired box protein Pax-8): 9.62 µM (active)

COc1ccc2c3c(n(C)c2c1)[C@H](CO)N(C(=O)Nc1ccc(F)cc1)CC31CCN(Cc2cccnc2)CC1
AC50 [5]: 2.03 µM (active) | AC50 [6]: > 100 µM (inactive) | AC50 [7]: 3.02 µM (active) | AC50 [8]: 1.52 µM (active) | AC50 [9]: 1.61 µM (active)

CC(=O)N1CCN(c2ccc(Nc3ncnc4c3oc3ccccc34)cc2)CC1
CC50 [10]: 58.3 µM (active) | IC50 [11]: 46 µM (active)

O=C(c1ccc(F)cc1)N(C(=O)c1ccc(F)cc1)c1ncccn1
AC50 [12]: 25.9 µM (active)

C[C@H]1CCCCO[C@@H](CN(C)Cc2ccc(Cl)c(Cl)c2)[C@@H](C)CN([C@@H](C)CO)C(=O)c2cc(NC(=O)Nc3ccc(C(F)(F)F)cc3)ccc2O1
AC50 [2]: 22.2 µM (active) | AC50 [4]: 59.1 µM (active) | AC50 [3]: > 70 µM (inactive) | AC50 (Paired box protein Pax-8): 4.77 µM (active)

Cc1ccc(-n2ncc(Br)c(Br)c2=O)cc1
AC50 [13]: 20.9 µM (active) | EC50 [14]: 5.57 µM (active) | EC50 [15]: 2.27 µM (inconclusive) | EC50 [16]: 1.97 µM (active) | EC50 [17]: 2.23 µM (active) | IC50 [18]: 3.25 µM (active) | EC50 [19]: 0.443 µM (active) | EC50 (Protein RecA): 4.75 µM (active)

CC(C)=C1SC(N2CCN(c3cccc(C(F)(F)F)c3)CC2)=NC1=O
EC50 [20]: 18.7 µM (not active)

CCCN1Cc2cccc(C(=O)NCc3ccc4c(c3)OCO4)c2C1=O
IC50 [1]: 31.8 µM (not active)

C[C@@H]1CN([C@H](C)CO)C(=O)c2cc(NC(=O)CCCCCC(=O)Nc3ccccc3N)ccc2O[C@@H](C)CCCCO[C@H]1CN(C)Cc1ccc(Cl)c(Cl)c1
AC50 [3]: 65.4 µM (active) | AC50 (Paired box protein Pax-8): 12.2 µM (active)

Cc1ccc(-c2ccc([C@H]3[C@@H](CO)N4CCCCN(C(=O)Nc5cccc(F)c5)C[C@H]34)cc2)cc1
AC50 [2]: 37.5 µM (active) | AC50 [4]: 39.1 µM (active) | AC50 (Paired box protein Pax-8): 21.7 µM (active)

Cc1ccc(C(=O)NN2C(=O)/C(=C/c3cccn3C)SC2=S)cc1
EC50 [20]: 0.09 µM (not active)

Cc1ccc(-c2csc(Nc3ccccn3)n2)cc1
AC50 [21]: 3.3 µM (active) | AC50 [22]: > 52 µM (inactive) | AC50 [23]: 2.74 µM (active)

CN(C)C(=O)c1ccc(-c2ccc([C@@H]3[C@@H]4CN(Cc5ccc6c(c5)OCO6)C[C@H]3N4)cc2)cc1
AC50 [5]: 2.58 µM (active) | AC50 [6]: 22.6 µM (active) | AC50 [7]: 1.13 µM (active) | AC50 [8]: 4.61 µM (active) | AC50 [9]: 2.25 µM (active)

C/C(=N\CCCn1ccnc1)C1=C(O)c2ccccc2C1=O
IC50 [1]: 35.7 µM (not active)

CCCc1cc(S)n2c(nc3ccccc32)c1C#N
CC50 [10]: 100 µM (active) | IC50 [11]: 52.2 µM (active)
